Where two headings read alike, the source gives them in different places.
Legend:
[1] = test system: IL-23-stimulated Kit225 T cells with STAT-dependent luciferase reporter; experiment: Kit225 T cell assay, STAT-dependent luciferase reporter, IL-23 stimulated; assay type: cell-based, human; details: read-out: IL-23 Kit225 Reporter, LE (IC50)
How it was run: (§1)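 Kit225 T cells carrying a stably integrated STAT-dependent luciferase reporter, in RPMI with 10% heat-inactivated FBS, stimulated with 20 ng/mL human recombinant IL-23 or 200 U/mL human recombinant IFNα for 5-6 h. Luciferase expression read by Steady-Glo luminescence.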

[2] = test system: IFNα-stimulated Kit225 T cells with STAT-dependent luciferase reporter; experiment: Kit225 T cell assay, STAT-dependent luciferase reporter, IFNα stimulated; assay type: cell-based, human; details: 5-6 hours, read-out: IFNa Kit225 Reporter, LE (IC50)
How it was run: as §1

[3] = 20 ng/mL human recombinant IL-23, 5-6 hours
[4] = 200 U/mL human recombinant IFNα
[5] = Homo sapiens, KIT225, 20 ng/mL human recombinant IL-23, 5-6 hours
[6] = Homo sapiens, KIT225, 200 U/mL human recombinant IFNα

Compound | IC50 [1, 3] | IC50 [2, 4] | IC50 [1, 5] | IC50 [2, 6]
CNc1cc(Nc2cccn(-c3ccc(C(=O)N(C)C)cc3)c2=O)nn2c(C(=O)NCC(C)(C)CO)cnc12 [compound 267] |  |  | 360 nM | 290 nM
CNc1cc(Nc2cccn(C)c2=O)nn2c(C(=O)NC3(C#N)CC3)cnc12 [Example 1, N-(1-Cyanocyclopropyl)-6-(1-methyl-2-oxo-1,2-dihydropyridin-3-ylamino)-8-(methylamino)imidazo[1,2-b]pyridazine-3-carboxamide] |  |  | 480 nM | 310 nM
CNc1cc(Nc2cc(F)cn(-c3ccccn3)c2=O)nn2c(C(=O)N[C@@H]3C[C@@H]3F)cnc12 [Example 151] | 30 nM | 20 nM |  | 
CCC(C)NC(=O)c1cnc2c(NC)cc(Nc3cncn(-c4ccccn4)c3=O)nn12 (single isomer, unassigned) [Example 76] | 410 nM | 560 nM |  | 
O=C(NC1CCC1)c1cnc2c3c(c(Nc4cccn(-c5ccccn5)c4=O)nn12)OCCN3 [Example 239, N-Cyclobutyl-6-((2-oxo-2H-[1,2′-bipyridin]-3-yl)amino)-9,10-dihydro-8H-imidazo[1′,2′:1,6]pyridazino[4,5-b][1,4]oxazine-3-carboxamide] |  |  | 210 nM | 100 nM
CNc1cc(Nc2cccn(C3CCOC3)c2=O)nn2c(C(=O)NC3CC3)cnc12 (stereo not drawn) [Example 220] | 170 nM | 280 nM |  | 
CNc1cc(Nc2cccn(C)c2=O)nn2c(C(=O)NCC(C)(C)CO)cnc12 [Example 117] | 240 nM | 150 nM |  | 
CNc1cc(Nc2cccn(-c3ccccc3)c2=O)nn2c(C(=O)N[C@@H]3C[C@@H]3F)cnc12 [Example 191] | 40 nM | 20 nM |  | 
CNc1cc(Nc2cccn(-c3ccccc3)c2=O)nn2c(C(=O)NC3(C#N)CCC3)cnc12 [Example 148] | 120 nM | 280 nM |  | 
CNc1cc(Nc2cccn(-c3ccc(C#N)cc3)c2=O)nn2c(C(=O)NC3CC3)cnc12 [Example 2, 6-((1-(4-Cyanophenyl)-2-oxo-1,2-dihydropyridin-3-yl)amino)-N-cyclopropyl-8-(methylamino)imidazo[1,2-b]pyridazine-3-carboxamide] |  |  | 160 nM | 90 nM
CCC(CC)NC(=O)c1cnc2c(NC)cc(Nc3cccn(-c4ccc(C)nn4)c3=O)nn12 [Example 233] | 720 nM | 280 nM |  | 
CNc1cc(Nc2cccn(C3CC3)c2=O)nn2c(C(=O)NC3CC3)cnc12 [Example 44] | 380 nM | 130 nM |  | 
CNc1cc(Nc2cccn(-c3ccccc3)c2=O)nn2c(C(=O)NC3CCC(O)C3(C)C)cnc12 (stereo not drawn) [Example 237] | 440 nM | 400 nM |  | 
CNc1cc(Nc2cccn(C3(C)CC3)c2=O)nn2c(C(=O)NC3CC3)cnc12 [Example 161] | 710 nM | 340 nM |  | 
CNc1cc(Nc2cccn(-c3ccc(C)nn3)c2=O)nn2c(C(=O)N[C@@H]3C[C@@H]3F)cnc12 [Example 65] | 60 nM | 40 nM |  | 
CCN(C)C(=O)c1ccc(-n2cccc(Nc3cc(NC)c4ncc(C(=O)N[C@@H]5C[C@@H]5F)n4n3)c2=O)nc1 [compound 263] |  |  | 160 nM | 50 nM
CNc1cc(Nc2cccn(-c3ccc(C)nn3)c2=O)nn2c(C(=O)NC3CCC3)cnc12 [Example 64] | 40 nM | 30 nM |  | 
CNc1cc(Nc2cccn(C)c2=O)nn2c(C(=O)N[C@H]3CCOC3)cnc12 [Example 58] | 90 nM | 970 nM |  | 
CNc1cc(Nc2cccn(-c3ccc(C(C)(C)O)cc3)c2=O)nn2c(C(=O)NC3(C#N)CC3)cnc12 [Example 27] | 660 nM | 450 nM |  | 
CNc1cc(Nc2cccn(C)c2=O)nn2c(C(=O)NC3CCC3)cnc12 [Example 68] | 30 nM | 10 nM |  | 
CCNC(=O)c1cnc2c(NC)cc(Nc3cccn(-c4cccc(F)n4)c3=O)nn12 [Example 67] | 70 nM | 140 nM |  | 
CNc1cc(Nc2cc(F)cn(CC3CC3)c2=O)nn2c(C(=O)NC3(C#N)CC3)cnc12 [Example 16] | 400 nM | 360 nM |  | 
CNc1cc(Nc2cccn(-c3ncc(F)cn3)c2=O)nn2c(C(=O)NC3CCC3)cnc12 [Example 173] | 50 nM | 50 nM |  | 
CNc1cc(Nc2cc(F)cn(C)c2=O)nn2c(C(=O)NC3(C#N)CC3)cnc12 [Example 11] | 310 nM | 260 nM |  | 
CCCc1ccc(-n2cccc(Nc3cc(NC)c4ncc(C(=O)N[C@@H]5C[C@@H]5F)n4n3)c2=O)nn1 [Example 100] | 40 nM | 30 nM |  | 
CNc1cc(Nc2cccn(-c3ccccc3)c2=O)nn2c(C(=O)NCc3nccs3)cnc12 [Example 182] | 220 nM | 270 nM |  | 
CNc1cc(Nc2cccn(-c3ccc(C(=O)N(C)C)cn3)c2=O)nn2c(C(=O)N[C@@H]3C[C@@H]3F)cnc12 [Example 257, 6-((5′-(Dimethylcarbamoyl)-2-oxo-2H-[1,2′-bipyridin]-3-yl)amino)-N-((1R,2S)-2-fluorocyclopropyl)-8-(methylamino)imidazo[1,2-b]pyridazine-3-carboxamide] |  |  | 180 nM | 70 nM

More lines, now with the values ahead:

IC50 [1, 3] | IC50 [2, 4] | IC50 [1, 5] | IC50 [2, 6] | Compound
190 nM | 130 nM |  |  | CCC(C)NC(=O)c1cnc2c(NC)cc(Nc3cccn(-c4ccc(C)nn4)c3=O)nn12 (single isomer, unassigned) [Example 75]
 |  | 1220 nM | 590 nM | CNc1cc(Nc2cccn(-c3cncc(C#N)n3)c2=O)nn2c(C(=O)NCC(C)(C)CO)cnc12 [compound 258]
280 nM | 260 nM |  |  | CNc1cc(Nc2cccn(-c3ccc(F)cn3)c2=O)nn2c(C(=O)NCC(C)(C)CO)cnc12 [Example 33]
 |  | 270 nM | 300 nM | CNc1cc(Nc2cccn(-c3ccccc3)c2=O)nn2c(C(=O)N[C@@H]3CCOC3)cnc12 [Example 7, (R)-8-(Methylamino)-6-((2-oxo-1-phenyl-1,2-dihydropyridin-3-yl)amino)-N-(tetrahydrofuran-3-yl)imidazo[1,2-b]pyridazine-3-carboxamide]
250 nM | 70 nM |  |  | CNc1cc(Nc2cccn(C(C)(C)C)c2=O)nn2c(C(=O)NC3(C#N)CC3)cnc12 [Example 219]
20 nM | 30 nM |  |  | CNc1cc(Nc2cccn(-c3ccc(F)cn3)c2=O)nn2c(C(=O)N[C@@H]3C[C@@H]3F)cnc12 [Example 37]
70 nM | 60 nM |  |  | CNc1cc(Nc2cc(F)cn(-c3ccccn3)c2=O)nn2c(C(=O)NC3CC3)cnc12 [Example 149]
50 nM | 20 nM |  |  | CNc1cc(Nc2cccn(-c3ccn(C4CC4)n3)c2=O)nn2c(C(=O)N[C@@H]3C[C@@H]3F)cnc12 [Example 164]
 |  | 280 nM | 230 nM | CNc1cc(Nc2cccn(C3CCN(C(=O)C4CC4(F)F)CC3)c2=O)nn2c(C(=O)NC3CC3)cnc12 (stereo not drawn) [Example 248]
30 nM | 20 nM |  |  | CNc1cc(Nc2cccn(-c3cc(C)on3)c2=O)nn2c(C(=O)NC3CCC3)cnc12 [Example 157]
190 nM | 200 nM |  |  | CNc1cc(Nc2cccn(-c3cnn(C)c3)c2=O)nn2c(C(=O)NC3CC3)cnc12 [Example 203]
 |  | 670 nM | 380 nM | CNc1cc(Nc2ccnn(-c3ccccc3)c2=O)nn2c(C(=O)NC3CCC3)cnc12 [Example 8, N-Cyclobutyl-8-(methylamino)-6-((3-oxo-2-phenyl-2,3-dihydropyridazin-4-yl)amino)imidazo[1,2-b]pyridazine-3-carboxamide]

From US10273237B2, “Imidazopyridazine compounds useful as modulators of IL-12, IL-23 and/or IFN-α responses” (BRISTOL-MYERS SQUIBB COMPANY, priority 2013, dated 2019)
